Assay results: ChEMBL document CHEMBL3301361, “Experimental in vitro DMPK and physicochemical data on a set of publicly disclosed compounds”
In brackets after ≈: the same amount, converted by molar mass.

Tests used:
[1] = physchem; conditions: octan-1-ol/water
[2] = in vitro; conditions: SD, HW or BN, rat, plasma
[3] = in vitro; conditions: human
[4] = in vitro; conditions: hepatocytes
[5] = in vitro; conditions: human, plasma, PPB
[6] = physchem; conditions: pH 7.4 buffer

SMILES | logD ([1]; pH 7.4, LogD7.4) | fraction unbound at 5 h [2] | microsomal CLint ([3]; liver microsomes) [µL/min/mg] | hepatocyte CLint [4] [µL/min/1e6 cells] | microsomal CLint ([3]; microsomes) [µL/min/mg] | fraction unbound at 5 h [5] | logD ([1]; pH 7.4) | solubility thermodynamic [6] [µM]
N#C[C@]1(NC(=O)[C@@H](N)Cc2cccs2)C[C@H]1c1ccccc1 | 1.5 | 0.294 | 41 | 136 | – | – | – | –
CCc1c2c(nc3ccc(O)cc13)-c1cc3c(c(=O)n1C2)COC(=O)[C@]3(O)CC [7-ETHYL-10-HYDROXYCAMPTOTHECIN] | 1.6 | 0.0948 | – | 24 | 25.1 | – | – | –
O=C(NCC1(O)CCCCCC1)c1cc(-c2ccccc2C(=O)O)ccc1Cl | -0.34 | 0.0909 | < 3 | 12.5 | – | 0.089 | – | –
COc1ccccc1CN1C(=O)c2ccccc2C1C(=O)NC1CCC(C)CC1 (centres undefined) | – | 0.0968 | > 150 | > 150 | – | – | 3.74 | –
CN(C)C(C)(C(=O)OC1CC[N+](C)(C)CC1)c1ccccc1 (centres undefined) | – | 0.454 | – | 16 | < 3 | – | – | –
O=C(NC1CC1)c1cn(-c2cccc(C#Cc3cccnc3)c2)c2ncccc2c1=O | – | 0.0082 | – | 29 | 7 | – | – | –
Cc1cccc(CN2CCC3(CC2)CCN(C(=O)c2ccccc2)CC3)c1 | – | 0.46 | 13.5 | 10.2 | – | – | – | –
O=C(Nc1nc2ccccc2[nH]1)c1ccccc1 | – | 0.126 | 64 | > 150 | – | – | – | –
Cc1ccc(S(=O)(=O)Nc2c(C(=O)NCc3ccccc3)cnn2-c2ccccc2)cc1 | 1.9 | 0.0066 | > 150 | 40 | – | – | – | –
Cc1nocc1C(=O)Nc1ccc(-c2ccccc2OC(F)(F)F)c(N)n1 | 3.7 | 0.0366 | < 3 | 74.1 | – | – | – | –
CC(C(=O)OC1CC[N+](C)(C)CC1)(c1ccccc1)N1CCC(F)(F)CC1 (centres undefined) | – | 0.624 | – | 38 | 41 | – | – | –
C[C@]12Cc3cnn(-c4ccc(F)cc4)c3C=C1CC[C@@]2(O)CCc1ccc(F)cc1C(N)=O | 3.8 | 0.0046 | – | 52.5 | 105 | 0.0321 | – | –
C[C@H](CO)n1ccc2c(NC(=O)Cc3ccc(Cl)c(C(F)(F)F)c3)cccc2c1=O | 3.49 | 0.0391 | < 3 | 29 | – | – | – | –
Cc1nc(-c2ccc(OCC(C)C)c(C#N)c2)sc1C(=O)O [FEBUXOSTAT] | 0.94 | 0.0052 | – | 12.7 | < 3 | – | – | –
COc1ccc(CNC(=O)Nc2ncc([N+](=O)[O-])s2)cc1 | 2.9 | 0.0108 | 56 | 91 | – | 0.0032 | – | –
Cc1ccc(C(=O)NC2CC2)cc1-c1ccc(C(=O)NCC2CC2)nc1 | 3.36 | 0.089 | – | 21 | < 3 | – | – | –
Cc1ccc(S(=O)(=O)Nc2c(C(=O)N[C@@H](C)C(C)(C)C)c(C)nn2C2CCS(=O)(=O)CC2)cc1 | 0.25 | 0.258 | – | 4 | < 3 | – | – | –
CCC(C)NC(=O)c1c(C)nn(-c2ccccc2)c1NS(=O)(=O)c1ccc(C)cc1 (centres undefined) | 0.66 | 0.0335 | – | 17.3 | 15.7 | 0.0059 | – | –
Cc1ccccc1/N=N/c1ccc(NC(=O)c2ccnn2C)c(C)c1 | – | 0.0017 | – | 51 | 4 | – | – | 3.2 (≈ 1.07 µg/mL)
COc1cccc2sc(NC(=O)c3ccccc3)nc12 | – | 0.0101 | 74 | 16 | – | – | 3.96 | –

SMILES | logD ([1]; pH 7.4, LogD7.4) | fraction unbound at 5 h [2] | microsomal CLint ([3]; liver microsomes) [µL/min/mg] | hepatocyte CLint [4] [µL/min/1e6 cells] | microsomal CLint ([3]; microsomes) [µL/min/mg] | fraction unbound at 5 h [5] | logD ([1]; pH 7.4) | solubility thermodynamic [6] [µM]
CC(C)(CCCCCOCCc1ccccc1)NCCc1ccc(O)c2nc(O)sc12 | 2.92 | 0.0229 | – | 93 | 48.7 | – | – | –
COc1cc2nnc(C(N)=O)c(Nc3ccc(F)cc3F)c2cc1N1CCN(C)CC1 | 2.36 | 0.157 | – | 16 | 33 | 0.0948 | – | –
C[C@@H]1CN(Cc2nnc(-c3cc(-c4cccc5[nH]ccc45)cc4[nH]ncc34)o2)C[C@H](C)O1 | 4.01 | 0.0313 | 107 | 55 | – | 0.0191 | – | –
Cc1ccc(S(=O)(=O)Nc2c(C(=O)NC3CCCCC3C)c(C)nn2-c2ccccc2)cc1 (centres undefined) | 1.94 | 0.0224 | 58 | 17 | – | 0.0066 | – | –
CC(C)c1nc2ccccc2n1-c1nc(N2CCOCC2)c2nc(OC3CN(C4CCS(=O)(=O)CC4)C3)n(C)c2n1 | 2.9 | 0.22 | – | 10 | 20.4 | 0.22 | – | –
COc1ccc([C@]2(C#N)CC[C@@H](C(=O)O)CC2)cc1OC1CCCC1 [CILOMILAST] | 0.76 | 0.0606 | – | 28 | 13 | 0.0116 | – | –
CNCCC=C1c2ccccc2CCc2ccccc21 [NORTRIPTYLINE] | 1.58 | 0.132 | – | 144 | < 3 | 0.132 | – | –
Cc1ccc(S(=O)(=O)Nc2c(C(=O)NC(C)C)c(C)nn2-c2ccccc2)cc1 | – | 0.051 | 12 | 51 | – | – | – | –
COc1ccnc(CCc2nc3ncccc3[nH]2)c1 | 1.69 | 0.309 | < 3 | 18.9 | – | – | – | –
CN(CCCOCCOCCc1ccccc1)CCc1ccc(O)c2nc(O)sc12 | – | 0.24 | 35 | > 150 | – | 0.0988 | – | –
Cc1nn(-c2ccccc2)c(NS(=O)(=O)c2cccc(CN3CCOCC3)c2)c1C(=O)N[C@@H](C)C(C)(C)C | – | 0.16 | 9 | 10 | – | – | – | –
CCc1cnn2c(NCc3ccc[n+]([O-])c3)cc(N3CCCC[C@H]3CCO)nc12 [DINACICLIB] | – | 0.176 | – | > 150 | > 150 | 0.0988 | – | –
CCC(CC)NC(=O)c1cnn(-c2ccccc2)c1NS(=O)(=O)c1ccc(C)cc1 | 0.79 | 0.0234 | 54.5 | 47.9 | – | – | – | –
CC1(C)[C@@H]2CC[C@@]1(CS(=O)(=O)N1CCN(c3ccc(C(F)(F)F)cn3)CC1)C(=O)C2 | – | 0.0191 | 51 | 141 | – | 0.0092 | – | –
O=c1[nH]c2c(O)ccc([C@@H](O)CN[C@H]3CCC[C@@H]3OCc3ccccc3)c2s1 | – | 0.179 | – | 108 | 26 | 0.069 | – | –
O=C(CC12CC3CC(CC(C3)C1)C2)Nc1cccc2c(=O)n(C(CO)CO)ccc12 | 2.62 | 0.117 | 42 | 19 | – | – | – | –
CCC(CC)NC(=O)c1cnn(-c2ccccn2)c1NS(=O)(=O)c1ccc(C)cc1 | 0.27 | 0.0499 | < 3 | 9.95 | – | – | – | –
Cc1c(Cl)ccc(OC2CCN(CC3CCN([C@@H](Cc4ccc(F)cc4)C(=O)O)CC3)CC2)c1Cl | – | 0.232 | < 3 | 13.8 | – | 0.0374 | – | –
CSCCC(NC(=O)c1ccccc1)c1nc2ccccc2n1Cc1ccc(C#N)cc1 (centres undefined) | 4.24 | 0.0245 | > 150 | > 150 | – | – | – | –
